According to US20050042714A1, “Glycoconjugates of sialic acid derivates, methods for their production and use thereof” (priority 2001, published 2005):

How the values were obtained:
[1] = system: CD75s in BJA-B K20 cells; assay: de novo expression of sialoglycan CD75s by indirect immunofluorescence (antibody HH2); format: cell-based, human; details: serum-free, 5 mM, 0-6 h
Description: Kinetics of 9-iodo-NeuAc-induced expression of sialoglycan CD75s in BJA-B K20 cells in comparison with its precursor 6-iodo-ManNAc. Cells were cultivated under serum-free conditions for at least 7 d and then either ManNAc, 6-iodo-ManNAc, 9-iodo-NeuAc or NeuAc (each 5 mM) was added. The de novo expression of CD75s was monitored at the indicated time points by indirect immunofluorescence using fixed and permeabilized cells. Representative confocal pictures of two independent experiments are shown.
The superiority of biosynthetic incorporation of sialic acid variants by NeuAc derivatives over derivatized ManNAc precurors was shown by directly comparing 9-iodo-NeuAc and the corresponding 6-iodo-ManNAc. K20 cells cultivated under serum-free conditions were incubated for 0-6 h with either 9-iodo-NeuAc or 6-iodo-ManNAc prior to analysis of CD75s expression. CD75s is an α-2,6 sialylated cell surface antigen of mature B-lymphocytes which is not detectable with the monoclonal antibody HH2 in K20 cells cultured in the absence of serum. […] We conclude that presentation of C9-modified sialic acids on the cell surface is only possible by medium supplementation with sialic acid analogues, but not with ManNAc analogues. […]

[2] = system: BJA-B K20 cells; assay: HPLC of membrane-associated sialic acids from analogue-treated cells; format: cell-based, human; details: serum-free, 5 mM, 48 h
Description: Sialic acid analogues are incorporated in cell surface glycoconjugates. HPLC chromatograms of DMB-derivatised sialic acids hydrolysed from glycoproteins of sialic acid analogue-treated BJA-B K20 cells. (A) standards, (B) untreated cells, (C) cells cultivated in 5-N-fluoroacNeu, (D) cells cultivated in 9-iodo-NeuAc. Peaks were identified as follows: NeuGc (internal standard), NeuAc, 5-N-fluoroac-Neu, 9-iodo-NeuAc, Na-pyruvate (internal standard). Internal standards were added to each sample.
To confirm that synthetic sialic acid analogues supplementing the medium were taken up and metabolically incorporated as analogues into surface sialoglyco-conjugates the membrane-associated sialic acid fraction was analyzed by High Performance Liquid Chromatography (HPLC). […]
To confirm that the modifications are still present after incorporation into glycoconjugates sialic acids were cleaved off cell surfaces and analyzed by HPLC. […] Sialic acids derivation was performed according to a method as given below and samples were analyzed on a reversed-phase C18 column as described (Keppler, O. T., Stehling, P., Herrmann, M., Kayser, H., Grunow, D., Reutter, W., and Pawlita, M. (1995) J Biol Chem 270(3), 1308-14).

[3] = system: HL60-I cells; assay: metabolic complementation assay: lectin staining (VVA, LFA, TLM) of analogue-treated cells by flow cytometry; format: cell-based, human; details: 5 mM, 24 h; for effect on VVA binding: decrease = masking of GalNAc by sialic acid
Description: Medium supplementation with some synthetic sialic acid analogues restores cell surface sialylation in hyposialylated HL60-I cells. Cells were cultivated in the presence of indicated synthetic sialic acid analogue (5 mM) for 24 h and stained with either directly fluorochrome-coupled lectins (VVA, LFA) or biotin-coupled lectin (TLM) and streptavidin-FITC and analyzed by flow cytometry. Values are given as “relative factor of change” (RFC) of the “mean fluorescence intensity” (MFI) of sialic acid-treated cells relative to untreated cells. The bars represent arithmetic means±SD (n^34) of one (x) or ≧two experiments.
To test whether cells can incorporate synthetic sialic acid analogues from the culture medium, a metabolic complementation assay was performed on endogenously hyposialylated, UDP-GlcNAc-2-epimerase-deficient HL60-I cells.
Cells were cultivated for 24 h in the presence of one of 16 different synthetic sialic acid analogues, carrying distinct C5 or C9 modifications (FIG. 1), and subsequently, changes in cell surface sialylation were assessed by flow cytometry using three fluorochrome-conjugated sialic acid-sensitive lectins. Vicia villosa agglutinin (VVA) detects GalNAc residues, and its binding sites can be masked by the addition of terminal sialic acid residues.
In sugar supplementation assays, cells seeded at 5×10^5 cells/ml in culture medium buffered with 40 mM HEPES (pH 7.2) were cultivated for 24 h in the presence or absence of 5 mM sialic acids (stocks of 100 mM dissolved in H2O, stored at 4° C.).
(§1) Lyophilized FITC-conjugated lectins Vicia villosa (VVA) was obtained from Sigma, dissolved in H2O (1 mg/ml), aliquoted and stored at −20° C. according to the manufacturer's instructions. FITC-conjugated Limax flavus agglutinin (LFA) was from EY Laboratories (San Manteo, Calif., USA) and biotin-coupled Tritrichomonas mobilensis agglutinin (TLM) from Calbiochem. Lectin staining procedure and fluorescence-activated cell scanning on a Becton Dickinson FACScan cytometer using Cellquest II software were carried out as described (Keppler, O. T., Molden-hauer, G., Oppenländer, M., Schwartz-Albiez, R., Berger, E. G., Funderud, S., and Pawlita, M. (1992) Eur J Immunol 22(11), 2777-81). Briefly, cells (3×10^5) were washed twice in cold PBS and then incubated in 100 μl PBS/0.05% NaN3, containing either fluorochrome-conjugated lectins VVA (50 μg/ml), LFA (20 μg/ml), or biotinylated TLM (20 μg/ml) for 45 min on ice in the dark. For biotinylated TLM a secondary incubation step with steptavidin-FITC (20 μg/ml) (Sigma) for 30 min on ice in the dark is required. After washing with PBS, cells were resuspended in 300 μl PBS and analyzed by flow cytometry.

[4] = system: HL60-I cells; assay: uptake of peracetylated/esterified NeuAc: VVA and TML lectin staining by flow cytometry; format: cell-based, human; details: HL60-I cells, 0.03 to 1 mM (NeuAc 1 or 5 mM), 72 h, 0.5% DMSO
Description: Peracetylation of NeuAc only facilitates uptake if the carboxyl group is additionally esterified. Hyposialylated HL60-I cells were cultivated in the presence of indicated synthetic sialic acid analogue (stock solution 200 mM in DMSO) ranging from 0.03 to 1 mM or 0, 1 or 5 mM NeuA for 72 h with DMSO concentrations adjusted to 0.5%. Cells were stained with either directly fluorochrome-coupled lectin VVA, or biotin-coupled lectin (TML) and streptavidin-FITC for analysis by flow cytometry. Values given are relative factors of change of the mean fluorescence intensity of pretreated cells relative to untreated cells. The bars represent arithmetic means±SD (n=3). Molecular structures are given below the diagram.
Sugars are very hydrophilic and it has been shown that increasing the hydrophobicity by peracetylation of hydroxyl groups enables or facilitates uptake of disaccharides (Collins, B. E., Fralich, T. J., Itonori, S., Ichikawa, Y. and Schnaar, R. L. (2000) Glycobiology, 10, 11-20; Sarkar, A. K., Fritz, T. A., Taylor, W. H. and Esko, J. D. (1995) Proc Natl Acad Sci USA, 92, 3323-7; Sarkar, A. K., Rostand, K. S., Jain, R. K., Matta, K. L. and Esko, J. D. (1997) J Biol Chem, 272, 25608-16). For ManNAc derivatives it has been shown that peracetylation reduces required medium concentrations (Collins et al., 2000). The acetyl groups are cleaved-off intracellularly by cellular esterases (Collins et al., 2000; Sarkar et al., 1995; Sarkar et al., 1997) and the derivatives are then processed as known for the non-acetylated sugars. In order to address the question whether peracetylation also facilitates uptake of N-acetylneuraminic acid, HL60-I cells were cultivated in the presence of peracetylated NeuAc at concentrations ranging from 0.03 mM to 1 mM for 3 days. Changes in cell surface sialylation were measured by flow cytometry using Vicia Villosa agglutinin (VVA) and Tritrichomonas mobilensis lectin (TML). […] This represents a reduction in concentration by more than 16-fold and is in a similar range as reported for peracetylated ManNAc and ManNAc (Collins et al., 2000).
as §1

[5] = stability under physiological conditions; format: physicochemical; details: most likely hydrolysed to NeuAc in the cytoplasm

SMILES | effect on CD75s expression within 6 h [1] | time to strong intracellular CD75s signal [1] [h] | share of membrane-associated sialic acids consisting of the analogue [2] [%] | effect on LFA binding [3] | effect on TLM binding [3] | increase of LFA binding (relative factor of change of mean fluorescence intensity vs untreated cells) [3] [fold] | increase of TLM binding (relative factor of change of mean fluorescence intensity vs untreated cells) [3] [fold] | effect on VVA binding [3] | effect on cell surface sialylation (VVA and TML binding) [4] | stability under physiological conditions [5] | effect on LFA binding ([3]; listed as NeuAc-Me-Ester) | effect on TLM binding ([3]; listed as NeuAc-Me-Ester)
CC(=O)N[C@@H]1C(O)O[C@H](CI)[C@@H](O)[C@@H]1O (stereo partly drawn) [6-iodo-ManNAc, reference compound] | did not show any effect | – | – | – | – | – | – | – | – | – | – | –
CC(=O)N[C@H]1[C@H]([C@H](O)[C@H](O)CI)OC(O)(C(=O)O)C[C@@H]1O (stereo partly drawn) [analogue f, 5-N-acetyl-9-deoxy-9-iodo-neuraminic acid] | – | ≤ 1 | 86.1 | increased binding of LFA | increased binding | 19.2 | 6.4 | significantly decreased VVA-binding | – | – | – | –
COC(=O)C1(O)C[C@H](O)[C@@H](NC(C)=O)[C@H]([C@H](O)[C@H](O)CO)O1 (stereo partly drawn) [analogue o, methyl N-acetyl neuraminate] | – | – | – | increased binding of LFA | increased binding | – | – | significantly decreased VVA-binding | did not affect uptake | unstable under physiological conditions | very similar to those of NeuAc | very similar to those of NeuAc
